The record followed here is BindingDB's records for doi:10.1016/s0960-894x(03)00680-2 (Merck Research Laboratories, 2003).

pIC50: −log10 of the molar value.

Holding throughout (assay): Protease Inhibition Assay
The target of assay [1] is T1, Dimer of Gag-Pol polyprotein [489-587,Q496K,L499I,M525I,N526D,M535I,R546K,L552P,A560V,G562S,I573V,L579M,I582L] (Human immunodeficiency virus 1, UniProt P12497, A560V/G562S/I573V/I582L/L499I/L552P/L579M/M525I/M535I/N526D/Q496K/R546K).
T1 construct: 489-587
The method, then:
(§1) Assay of HIV protease inhibition was performed by peptide cleavage using the substrate Val-Ser-Gln-Asn-beta-naphthylalanine*Pro-Ile-Val. Products of the cleavage reaction were quantified by HPLC detection, and data were fit to nonlinear least squares equations for determination of steady-state Michaelis-Menten kinetics.

For assay [2], the target named is T2, Dimer of Gag-Pol polyprotein [489-587,Q496K,L499I,M535I,I543V,Q547E,L552P,I553V,V566I,V571F,I573V,L579M,I582L] (Human immunodeficiency virus 1, UniProt P12497, I543V/I553V/I573V/I582L/L499I/L552P/L579M/M535I/Q496K/Q547E/V566I/V571F).
T2 construct: 489-587
The protocol: as §1

For assay [3], the target named is T3, Dimer of Gag-Pol polyprotein [489-587,Q496K,L499I,N526S,R530K,M535I,I543V,I551V,L552P,A560V,V566I,V571A,L579M,I582L] (Human immunodeficiency virus 1, UniProt P12497, A560V/I543V/I551V/I582L/L499I/L552P/L579M/M535I/N526S/Q496K/R530K/V566I/V571A).
T3 construct: 489-587
The method, then: as §1

Assay [4] concerns the target T4, Dimer of Gag-Pol polyprotein [489-587,Q496K] (Human immunodeficiency virus 1, UniProt P12497, Q496K).
T4 construct: 489-587
Conditions: pH 5.5; 30 °C. The method, then: as §1

Consider `O=C(N[C@H]1c2ccccc2OC[C@H]1O)[C@H](Cc1ccncc1)C[C@H](O)CN1CCN(Cc2cc3ccsc3s2)C[C@H]1C(=O)NCC(F)(F)F` [(2S)-1-[(2S,4R)-2-hydroxy-4-{[(3S,4S)-3-hydroxy-3,4-dihydro-2H-1-benzopyran-4-yl]carbamoyl}-4-(pyridin-4-ylmethyl)butyl]-4-{thieno[2,3-b]thiophen-2-ylmethyl}-N-(2,2,2-trifluoroethyl)piperazine-2-carboxamide], for which the pIC50 in assay [1] is 8.92; in assay [2], 7.70; in assay [3], 8.32; in assay [4], 10.15.

`O=C(N[C@H]1c2ccccc2OC[C@H]1O)[C@H](Cc1cccnc1)C[C@H](O)CN1CCN(Cc2cc3ccsc3s2)C[C@H]1C(=O)NCC(F)(F)F` [(2S)-1-[(2S,4R)-2-hydroxy-4-{[(3S,4S)-3-hydroxy-3,4-dihydro-2H-1-benzopyran-4-yl]carbamoyl}-4-(pyridin-3-ylmethyl)butyl]-4-{thieno[2,3-b]thiophen-2-ylmethyl}-N-(2,2,2-trifluoroethyl)piperazine-2-carboxamide]: the pIC50 in assay [1] is 9.37; in assay [2], 8.30; in assay [3] it was 8.49; in assay [4], 10.52.
